Reference: patent US20080103170A1, “Nicotinic Acetylcholine Receptor Ligands” (AstraZeneca AB, priority 2004, published 2008)

Molecular target: T1, α4 nAChR (Rattus norvegicus, UniProt P09483+P12390)
T1 construct: from tissue; host or cells: rat cortical brain membranes
Assay: Affinity at α4 nAChR by [125I]-IPH binding to rat cortical membranes
Conditions: saturation curves fitted to a one site model
Description: Assay for Affinity at an α4 nAChR Receptor by Measuring the Binding of […] Binding to Rat Cortical Membranes
A procedure modified from Martino-Barrows and Kellar (Mol Pharm (1987) 31:169-174) may be used. Rat cortical brain membranes are prepared as described in the [^125I]α-BTX binding assay, except that a 500-12000×g membrane fraction is prepared. Membranes (30-150 μg) are incubated with 30-100 pM of the epibatidine analog [^125I]-IPH ((+/−)-exo-2-(2-iodo-5-pyridyl)-7-azabicyclo-[2,2,1]heptane) together with test compound in HB for 1 hour at room temperature with gentle shaking. Membranes may be recovered as described for the [^125I]α-BTX binding assay. Non-specific binding may be determined by 100 μM carbachol. Typically specific binding is about 84%.
Analysis of Binding Data Obtained in α7 nAChR or α4 nAChR Receptor Assays
IC50 values and pseudo Hill coefficients (nH) may be calculated using the non-linear curve fitting program ALLFIT (DeLean A, Munson P J and Rodbard D (1977) Am. J. Physiol., 235:E97-E102). […] Ki values may be estimated using the general Cheng-Prusoff equation:
Ki=[IC50]/((2+ligand/KD)^n)^1/n−1)
where a value of n=1 is used whenever nH<1.5 and a value of n=2 is used when nH≧1.5. To account for variability, assays may be performed in triplicate and variability will typically be ±5%. Ki values may be determined using six to 11 drug concentrations.

T1 sequence (P12390 25-500): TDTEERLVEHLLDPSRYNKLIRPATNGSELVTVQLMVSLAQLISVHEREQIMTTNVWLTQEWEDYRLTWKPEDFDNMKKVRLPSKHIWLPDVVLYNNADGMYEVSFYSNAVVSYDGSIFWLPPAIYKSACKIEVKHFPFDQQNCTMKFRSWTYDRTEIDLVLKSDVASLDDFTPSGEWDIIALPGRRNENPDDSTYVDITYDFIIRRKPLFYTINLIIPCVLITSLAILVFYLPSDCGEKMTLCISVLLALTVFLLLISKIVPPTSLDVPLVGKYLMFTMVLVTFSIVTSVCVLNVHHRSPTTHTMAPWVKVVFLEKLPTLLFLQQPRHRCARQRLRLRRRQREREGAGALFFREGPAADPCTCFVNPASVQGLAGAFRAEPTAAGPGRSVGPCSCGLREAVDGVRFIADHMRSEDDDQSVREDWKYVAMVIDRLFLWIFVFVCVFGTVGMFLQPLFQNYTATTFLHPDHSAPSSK
T1 sequence (P09483 31-630): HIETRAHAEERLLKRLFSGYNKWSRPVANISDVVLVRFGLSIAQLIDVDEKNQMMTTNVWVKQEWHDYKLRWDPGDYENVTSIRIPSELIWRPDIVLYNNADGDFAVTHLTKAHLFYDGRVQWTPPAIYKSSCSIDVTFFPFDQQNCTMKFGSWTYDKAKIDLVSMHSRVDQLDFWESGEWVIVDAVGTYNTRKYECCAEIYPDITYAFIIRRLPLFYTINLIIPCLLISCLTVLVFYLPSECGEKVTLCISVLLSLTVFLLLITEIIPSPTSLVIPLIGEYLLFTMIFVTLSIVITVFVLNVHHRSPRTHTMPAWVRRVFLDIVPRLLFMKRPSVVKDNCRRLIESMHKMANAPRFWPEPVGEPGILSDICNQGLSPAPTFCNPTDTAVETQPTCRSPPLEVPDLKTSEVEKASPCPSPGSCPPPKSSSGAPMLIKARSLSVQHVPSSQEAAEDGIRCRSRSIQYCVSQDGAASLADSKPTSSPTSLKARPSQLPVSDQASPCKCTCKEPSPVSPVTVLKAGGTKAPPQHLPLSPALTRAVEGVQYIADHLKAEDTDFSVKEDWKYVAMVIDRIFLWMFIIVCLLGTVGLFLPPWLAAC

Ic1ccc(C2CC3CCC2N3)cn1 (racemic) [[^125I]-IPH, (+/−)-exo-2-(2-iodo-5-pyridyl)-7-azabicyclo-[2,2,1]heptane]
Kd: 0.064 nM
